According to PMC7083565, “In vitro metabolism, reaction phenotyping, enzyme kinetics, CYP inhibition and induction potential of ataluren” (Pharmacology Research & Perspectives, 2020):

What was measured:
[1] = Glucuronidation in liver microsomes (tissue comparison); assay type: in vitro ADME, human; conditions: 10 μmol/L, 60 minutes, n = 1
CYP2D6 = target: T1, CYP2D6 (Homo sapiens, UniProt P10635); assay: CYP inhibition in pooled human liver microsomes: CYP2D6; assay type: in vitro ADME; conditions: CYP2D6, HLM, estimated, concentrations up to 400 μmol/L
T1 construct: tissue XenoTech LLC, Celsis-In Vitro Technologies, or Tissue Transformation Technologies; host or cells: pooled human liver microsomes
T1 sequence (P10635 whole entry): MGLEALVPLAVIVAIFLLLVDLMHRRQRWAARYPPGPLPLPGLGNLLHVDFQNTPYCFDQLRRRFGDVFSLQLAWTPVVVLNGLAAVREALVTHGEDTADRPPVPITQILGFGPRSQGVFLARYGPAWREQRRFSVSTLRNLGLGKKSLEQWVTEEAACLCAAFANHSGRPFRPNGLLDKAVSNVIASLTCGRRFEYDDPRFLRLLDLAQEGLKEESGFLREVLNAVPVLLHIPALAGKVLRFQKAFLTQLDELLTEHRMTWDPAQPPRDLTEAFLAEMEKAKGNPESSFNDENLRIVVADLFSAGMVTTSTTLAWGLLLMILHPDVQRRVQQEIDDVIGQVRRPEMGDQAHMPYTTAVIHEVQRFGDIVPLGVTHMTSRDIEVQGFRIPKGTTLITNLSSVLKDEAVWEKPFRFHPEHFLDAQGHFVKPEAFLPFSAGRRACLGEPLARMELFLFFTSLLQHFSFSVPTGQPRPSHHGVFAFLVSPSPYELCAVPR
Protocol: (§1) The final concentration of each probe substrate was near the experimentally determined Km value for the indicated enzyme. Ataluren or prototypical CYP inhibitors (positive controls) was incubated (n = 3) with probe substrates and HLM in 100 mmol/L phosphate buffer (pH 7.4) in a total volume of approximately 0.25 mL, and the reactions were initiated by the addition of 1 mmol/L NADPH at 37°C. The reactions were carried out using previously established conditions to ensure linearity with respect to protein concentration and incubation time (Table S1). Incubations were stopped with the addition of ice‐cold acetonitrile. Metabolite formation in incubations with test compound and control inhibitors was assessed with LC‐MS/MS methods for each of the reaction products as described in Table S2. […] After 7 minutes incubation at 37°C, the reaction was stopped by the addition of ice‐cold acetonitrile, followed by membrane plate filtration. The filtrates were used for LC‐MS/MS analysis. […] IC50 values were determined by nonlinear regression with GraphPad Prism 5 using the following four‐parameter sigmoidal‐logistic IC50 equation: Fit=background+range-background/[1+I/IC50^slope]
(§2) Where, I is the inhibitor concentration, and background was set to 0 and range to 100, as percent of control values are utilized. K i was determined by nonlinear regression with GraphPad Prism 5 using best fit model.

CYP2C19 [2] = assay: CYP induction in primary human hepatocytes: CYP2C19; assay type: in vitro ADME; conditions: male, 48 h
Protocol: Human hepatocytes isolated from three Caucasian males were transferred to 48‐well collagen‐coated plates at 0.14 × 10^6 cells/well in planting media for attachment. After attachment, planting media was replaced with sandwich media and the cells were incubated until clusters were established. […] The incubation solutions were aspirated and replaced with freshly prepared incubation solutions containing ataluren for an additional 24 hours. […] The incubation solutions were then aspirated and 150 µL of K‐H buffer containing CYP substrates were added. […] Metabolite formation in incubations with test compounds and control inhibitors was assessed with validated LC‐MS/MS methods for each of the reaction products as described in Table S2. Enzymatic activity for each CYP was calculated using the absolute amount of metabolite formed (pmol) divided by hepatocytes in the incubation (million cells) and the incubation time (minute). The relative fold induction in enzymatic activity was calculated by comparing the rate of metabolite formation for treatment groups to that of the solvent control group (reported as vehicle control%) or positive control group (reported as positive control%).

[3] = Free fraction in human liver microsomes (internal data); assay type: in vitro ADME; conditions: between 1 and 200 µmol/L, 0.1 mg/mL protein concentration
human hepatocytes = assay: MTT cytotoxicity assay in human hepatocytes; assay type: cell-based; conditions: at the concentrations tested (4, 40, 400 µmol/L), data not shown
CYP2C19 [4] = target: T2, CYP2C19 (Homo sapiens, UniProt P33261); assay: CYP inhibition in pooled human liver microsomes: CYP2C19; assay type: in vitro ADME; conditions: CYP2C19, HLM, estimated, concentrations up to 400 μmol/L
T2 construct: tissue XenoTech LLC, Celsis-In Vitro Technologies, or Tissue Transformation Technologies; host or cells: pooled human liver microsomes
T2 sequence (P33261 whole entry): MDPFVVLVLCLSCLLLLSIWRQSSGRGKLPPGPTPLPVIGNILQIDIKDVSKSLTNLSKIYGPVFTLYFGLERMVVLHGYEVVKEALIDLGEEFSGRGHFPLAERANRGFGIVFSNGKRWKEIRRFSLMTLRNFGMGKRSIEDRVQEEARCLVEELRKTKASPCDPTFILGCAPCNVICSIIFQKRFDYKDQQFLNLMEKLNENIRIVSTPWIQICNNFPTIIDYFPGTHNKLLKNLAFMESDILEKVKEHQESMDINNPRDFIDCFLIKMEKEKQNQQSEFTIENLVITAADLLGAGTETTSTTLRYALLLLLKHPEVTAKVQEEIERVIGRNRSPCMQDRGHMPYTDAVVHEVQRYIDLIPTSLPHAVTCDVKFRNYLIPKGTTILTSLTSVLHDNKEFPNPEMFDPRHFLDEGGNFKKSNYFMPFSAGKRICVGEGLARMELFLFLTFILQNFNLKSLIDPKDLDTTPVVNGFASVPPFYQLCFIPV
Protocol: as §1, §2

With O=C(O)c1cccc(-c2noc(-c3ccccc3F)n2)c1 [ataluren, Ataluren] the ataluren loss [1] was 31.4%, the IC50 (CYP2D6) was > 400 µM and the “Vehicle control %, Mean” value (CYP2C19 [2]; 4 µM) was 112%. For the same compound, the “Vehicle control %, Mean” value (CYP2C19 [2]; 400 µM) was 99.0%, the “Free fractions of ataluren in human liver microsomes” value [3] was “close to unity” and the “cytotoxicity (MTT assay)” value (human hepatocytes) was “not cytotoxic”. For the same compound, the IC50 (CYP2C19 [4]) was > 400 µM.
